The target of the test is T1, human P2X7 (Homo sapiens, UniProt Q99572).
T1 construct: 1321N1 cells stably expressing the full length human P2X7 gene (1321N1-hP2X7)
T1 sequence (Q99572 1-595): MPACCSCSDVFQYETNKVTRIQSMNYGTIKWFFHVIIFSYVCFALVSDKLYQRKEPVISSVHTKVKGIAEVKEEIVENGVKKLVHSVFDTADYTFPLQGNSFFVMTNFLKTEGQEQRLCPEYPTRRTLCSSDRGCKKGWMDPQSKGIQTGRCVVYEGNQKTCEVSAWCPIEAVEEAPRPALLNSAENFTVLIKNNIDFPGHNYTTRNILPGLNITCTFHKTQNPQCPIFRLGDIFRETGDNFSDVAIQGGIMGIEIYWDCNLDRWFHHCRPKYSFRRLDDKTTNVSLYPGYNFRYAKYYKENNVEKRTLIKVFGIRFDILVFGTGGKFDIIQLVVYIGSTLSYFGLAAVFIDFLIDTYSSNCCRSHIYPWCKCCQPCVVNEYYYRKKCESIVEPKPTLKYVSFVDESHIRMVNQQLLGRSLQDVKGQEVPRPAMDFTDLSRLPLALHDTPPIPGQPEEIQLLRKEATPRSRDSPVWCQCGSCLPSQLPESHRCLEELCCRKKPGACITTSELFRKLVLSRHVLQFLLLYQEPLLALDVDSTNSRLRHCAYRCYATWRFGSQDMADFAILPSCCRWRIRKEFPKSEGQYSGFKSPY
Nature of the test: P2X7 modulator pIC50 of Table 1 (assay not given; Intracellular Calcium Flux (FLIPR) Assay assumed). The class given is cell-based. On the procedure:
Intracellular Calcium Flux (FLIPR) Assay
Stock solutions of compounds were prepared from powders as a 10 mM DMSO stock solution. These solutions were stored at RT during the two week period of these experiments to prevent freeze-thaw of the DMSO stocks. The DMSO stocks were added to the appropriate assay buffer at a concentration of 10 μM, and then diluted serially to the final concentrations that were tested. No observable precipitate was formed at any time during this process. The aqueous solutions of compounds as well as ATP (Sigma A7699) and BzATP (Sigma B6396) were prepared fresh for each day of experiment.
1321N1 cells stably expressing the full length human P2X7 gene (1321N1-hP2X7) and HEK293 cells stably expressing the full length rat P2X7 gene (HEK293-rP2X7) were obtained from the Roche Cell Culture Facility. 1321N1-hP2X7 cells were grown in Dulbecco's Modified Eagle's Medium (DMEM) high glucose supplemented with 10% FBS and 250 μg/mL G418. HEK293-rP2X7 cells were grown in DMEM/F-12 supplemented with 10% FBS, 1 mM CaCl2, 2 mM MgCl2, 2 mM L-Glutamine and 500 μg/ml G418. Cells were split such that they never became >70% confluent.
On the day prior to the experiment, 1321N1-hP2X7 or HEK293-rP2X7 cells were released into suspension with calcium-free PBS+Versene and washed by centrifugation with calcium-free PBS to remove the Versene. Cells were resuspended in growth medium at a density of 2.5×10^5 cells/mL and seeded into black walled, clear bottom 96 well plates (50,000 cells/well) approximately 18 hr prior to intracellular calcium flux experiments.
On the day of the experiment, plates were washed with FLIPR buffer (calcium- and magnesium-free Hank's Balanced Salt Solution (HBSS) supplemented with 10 mM Hepes, 2.5 mM probenecid and 2 mM calcium chloride) using a BIO-TEK 96 channel plate washer and incubated with […] fluo-3 dye at 37° C. for one hr. The dye was then removed by plate washing and the cells were allowed to equilibrate for 20 min at room temperature with antagonist or vehicle (FLIPR buffer). Agonist (100 μM BzATP final concentration for hP2X7; 5μM BzATP final concentration or rP2X7) was added online with the FLIPR and fluorescence measurements made at 1 sec intervals for 60 sec followed by 3 sec intervals for a further 4 min (5 min total). A final addition of 5 μM ionomycin was made and the maximal BzATP-evoked fluorescence normalized to the maximal ionomycin-evoked fluorescence.
For orientation: Calcium assays in cells follow changes in intracellular calcium, usually with a dye or a luminescent sensor.

The structures appear in SMILES notation.

Usually IC50 stands for the concentration that inhibits the measured activity by half. As for `CN1C=C(C(=O)Nc2cc(N3CCCC3=O)ccc2Br)[C@H](c2ccc(F)cc2)NC1=O` [Compound 45, (S)-4-(4-Fluoro-phenyl)-1-methyl-2-oxo-1,2,3,4-tetrahydro-pyrimidine-5-carboxylic acid [2-bromo-5-(2-oxo-pyrrolidin-1-yl)-phenyl]-amide], the IC50 is 138 nM.
On to `Cc1cc2cnn(C)c2cc1NC(=O)C1=CN(C)C(=O)N[C@H]1c1ccc(F)cc1` [Compound 46], for which the IC50 is 12.2 nM.
On to `Cc1cc2cn[nH]c2cc1NC(=O)C1=CN(C)C(=O)N[C@H]1c1ccc(F)cc1` [Compound 47, (S)-4-(4-Fluoro-phenyl)-1-methyl-2-oxo-1,2,3,4-tetrahydro-pyrimidine-5-carboxylic acid (5-methyl-1H-indazol-6-yl)-amide], for which the half-maximal inhibitory concentration (IC50) was 18.2 nM.
In the case of `Cc1ccc(-n2ccc(=O)[nH]c2=O)cc1NC(=O)C1=CN(C)C(=O)N[C@H]1c1ccc(F)cc1` [Compound 48, (S)-4-(4-Fluoro-phenyl)-1-methyl-2-oxo-1,2,3,4-tetrahydro-pyrimidine-5-carboxylic acid [5-(2,4-dioxo-3,4-dihydro-2H-pyrimidin-1-yl)-2-methyl-phenyl]-amide] it was 26 nM; in that of `Cc1ccc(-n2ncccc2=O)cc1NC(=O)C1=CN(C)C(=O)N[C@H]1c1cccc(F)c1` [Compound 49, (S)-4-(3-Fluoro-phenyl)-1-methyl-2-oxo-1,2,3,4-tetrahydro-pyrimidine-5-carboxylic acid [2-methyl-5-(6-oxo-6H-pyridazin-1-yl)-phenyl]-amide], 105 nM.
In the case of `Cc1ccc(-n2cccc(C)c2=O)cc1NC(=O)C1=CN(C)C(=O)N[C@H]1c1ccc(F)cc1` [Compound 50, (S)-4-(4-Fluoro-phenyl)-1-methyl-2-oxo-1,2,3,4-tetrahydro-pyrimidine-5-carboxylic acid [2-methyl-5-(3-methyl-2-oxo-2H-pyridin-1-yl)-phenyl]-amide] it was 55 nM; in that of `CN1C=C(C(=O)Nc2cccc3c(=O)n(C)ccc23)[C@H](c2ccc(F)cc2)NC1=O` [Compound 51, (S)-4-(4-Fluoro-phenyl)-1-methyl-2-oxo-1,2,3,4-tetrahydro-pyrimidine-5-carboxylic acid (2-methyl-1-oxo-1,2-dihydro-isoquinolin-5-yl)-amide], 63.1 nM.
In the case of `Cc1ccc(-c2ccnn(C)c2=O)cc1NC(=O)C1=CN(C)C(=O)NC1C1CCC(F)(F)CC1` (stereo not drawn) [Compound 52, 4-(4,4-Difluoro-cyclohexyl)-1-methyl-2-oxo-1,2,3,4-tetrahydro-pyrimidine-5-carboxylic acid [2-methyl-5-(2-methyl-3-oxo-2,3-dihydro-pyridazin-4-yl)-phenyl]-amide] it was 339 nM.
As to `CN1C=C(C(=O)Nc2cccc3c(=O)n(CCO)ccc23)[C@H](c2ccc(F)cc2)NC1=O` [Compound 53, (S)-4-(4-Fluoro-phenyl)-1-methyl-2-oxo-1,2,3,4-tetrahydro-pyrimidine-5-carboxylic acid [2-(2-hydroxy-ethyl)-1-oxo-1,2-dihydro-isoquinolin-5-yl]-amide], the IC50 is 53.1 nM.
In the case of `Cc1ccc(-n2ccccc2=O)cc1NC(=O)C1=CN(C)C(=O)N[C@H]1c1ccc(F)cc1` [Compound 54, (S)-4-(4-Fluoro-phenyl)-1-methyl-2-oxo-1,2,3,4-tetrahydro-pyrimidine-5-carboxylic acid [2-methyl-5-(2-oxo-2H-pyridin-1-yl)-phenyl]-amide] it was 21.6 nM; in that of `COc1ccc(-c2ccc(C)c(NC(=O)C3=CN(C)C(=O)N[C@H]3c3ccc(F)cc3)c2)nn1` [Compound 55, (S)-4-(4-Fluoro-phenyl)-1-methyl-2-oxo-1,2,3,4-tetrahydro-pyrimidine-5-carboxylic acid [5-(6-methoxy-pyridazin-3-yl)-2-methyl-phenyl]-amide], 11 nM.
In the case of `Cc1ccc(-n2c(=O)cc[nH]c2=O)cc1NC(=O)C1=CN(C)C(=O)N[C@H]1c1ccc(F)cc1` [Compound 56, (S)-4-(4-Fluoro-phenyl)-1-methyl-2-oxo-1,2,3,4-tetrahydro-pyrimidine-5-carboxylic acid [5-(2,6-dioxo-3,6-dihydro-2H-pyrimidin-1-yl)-2-methyl-phenyl]-amide] it was 3160 nM.
In the case of `Cc1ccc(-c2ccnn(C)c2=O)cc1NC(=O)C1=CN(C)C(=O)N[C@H]1c1ccccc1` [Compound 57, (S)-1-Methyl-2-oxo-4-phenyl-1,2,3,4-tetrahydro-pyrimidine-5-carboxylic acid [2-methyl-5-(2-methyl-3-oxo-2,3-dihydro-pyridazin-4-yl)-phenyl]-amide] it was 3470 nM.
`Cc1cc2cnn(CC(=O)N(C)C)c2cc1NC(=O)C1=CN(C)C(=O)N[C@H]1c1ccc(F)cc1` [Compound 58]: the half-maximal inhibitory concentration (IC50) is 40.3 nM.
In the case of `Cc1ccc(-c2ccc(=O)n(CCO)n2)cc1NC(=O)C1=CN(C)C(=O)N[C@H]1c1ccc(F)cc1` [Compound 59, (S)-4-(4-Fluoro-phenyl)-1-methyl-2-oxo-1,2,3,4-tetrahydro-pyrimidine-5-carboxylic acid {5-[1-(2-hydroxy-ethyl)-6-oxo-1,6-dihydro-pyridazin-3-yl]-2-methyl-phenyl}-amide] it was 16.8 nM; in that of `Cc1ccc(-c2cccn(C)c2=O)cc1NC(=O)C1=CN(C)C(=O)N[C@H]1c1ccc(F)cc1` [Compound 60, (S)-4-(4-Fluoro-phenyl)-1-methyl-2-oxo-1,2,3,4-tetrahydro-pyrimidine-5-carboxylic acid [2-methyl-5-(1-methyl-2-oxo-1,2-dihydro-pyridin-3-yl)-phenyl]-amide], 5.5 nM.
In the case of `COC[C@H](O)Cn1nc(-c2ccc(C)c(NC(=O)C3=CN(C)C(=O)N[C@H]3c3ccc(F)cc3)c2)ccc1=O` [Compound 61, (S)-4-(4-Fluoro-phenyl)-1-methyl-2-oxo-1,2,3,4-tetrahydro-pyrimidine-5-carboxylic acid {5-[1-((R)-2-hydroxy-3-methoxy-propyl)-6-oxo-1,6-dihydro-pyridazin-3-yl]-2-methyl-phenyl}-amide] it was 40.7 nM.
In the case of `Cc1cc(Cl)c(OCCO)cc1NC(=O)C1=CN(C)C(=O)NC1c1ccccc1` (stereo not drawn) [Compound 62, 1-Methyl-2-oxo-4-phenyl-1,2,3,4-tetrahydro-pyrimidine-5-carboxylic acid [4-chloro-5-(2-hydroxy-ethoxy)-2-methyl-phenyl]-amide] it was 15 nM; in that of `Cc1cc(Cl)c(-n2ncccc2=O)cc1NC(=O)C1=CN(C)C(=O)N[C@H]1c1ccc(F)cc1` [Compound 63, (S)-4-(4-Fluoro-phenyl)-1-methyl-2-oxo-1,2,3,4-tetrahydro-pyrimidine-5-carboxylic acid [4-chloro-2-methyl-5-(6-oxo-6H-pyridazin-1-yl)-phenyl]-amide], 51.9 nM.
In the case of `CCn1c(=O)cnn(-c2ccc(C)c(NC(=O)C3=CN(C)C(=O)N[C@H]3c3ccc(F)cc3)c2)c1=O` [Compound 64, (S)-4-(4-Fluoro-phenyl)-1-methyl-2-oxo-1,2,3,4-tetrahydro-pyrimidine-5-carboxylic acid [5-(4-ethyl-3,5-dioxo-4,5-dihydro-3H-[1,2,4]triazin-2-yl)-2-methyl-phenyl]-amide], the IC50 was 16.6 nM.
In the case of `Cc1ccc2c(C)c(NC(=O)C3=CN(C)C(=O)N[C@H]3c3ccc(F)cc3)ccc2n1` [Compound 65, (S)-4-(4-Fluoro-phenyl)-1-methyl-2-oxo-1,2,3,4-tetrahydro-pyrimidine-5-carboxylic acid (2,5-dimethyl-quinolin-6-yl)-amide] it was 15.5 nM.

The values above are taken from patent US8435990B2, “Dihydropyrimidone amides as P2X7 modulators” (Roche Palo Alto LLC, priority 2009, dated 2013).
